The values that follow come from article PMC6934184, “Selective DNA-PKcs inhibition extends the therapeutic index of localized radiotherapy and chemotherapy” (The Journal of Clinical Investigation, 2019).

The experiment has as its target T1, NEK1 (Homo sapiens, UniProt Q96PY6).
T1 construct: purchased Thermo Fisher Scientific (Life Technologies) SelectScreen
The experiment can be described thus: SelectScreen Z'LYTE. In kind it is biochemical. The method, boiled down:
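SelectScreen broad panel; activity (Z'LYTE, Adapta) plus binding formats. ATP: Km app for CSF1R Z'LYTE; 10 for CAMK1 Adapta. Readout = % per kinase.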

T1 sequence (Q96PY6 whole entry): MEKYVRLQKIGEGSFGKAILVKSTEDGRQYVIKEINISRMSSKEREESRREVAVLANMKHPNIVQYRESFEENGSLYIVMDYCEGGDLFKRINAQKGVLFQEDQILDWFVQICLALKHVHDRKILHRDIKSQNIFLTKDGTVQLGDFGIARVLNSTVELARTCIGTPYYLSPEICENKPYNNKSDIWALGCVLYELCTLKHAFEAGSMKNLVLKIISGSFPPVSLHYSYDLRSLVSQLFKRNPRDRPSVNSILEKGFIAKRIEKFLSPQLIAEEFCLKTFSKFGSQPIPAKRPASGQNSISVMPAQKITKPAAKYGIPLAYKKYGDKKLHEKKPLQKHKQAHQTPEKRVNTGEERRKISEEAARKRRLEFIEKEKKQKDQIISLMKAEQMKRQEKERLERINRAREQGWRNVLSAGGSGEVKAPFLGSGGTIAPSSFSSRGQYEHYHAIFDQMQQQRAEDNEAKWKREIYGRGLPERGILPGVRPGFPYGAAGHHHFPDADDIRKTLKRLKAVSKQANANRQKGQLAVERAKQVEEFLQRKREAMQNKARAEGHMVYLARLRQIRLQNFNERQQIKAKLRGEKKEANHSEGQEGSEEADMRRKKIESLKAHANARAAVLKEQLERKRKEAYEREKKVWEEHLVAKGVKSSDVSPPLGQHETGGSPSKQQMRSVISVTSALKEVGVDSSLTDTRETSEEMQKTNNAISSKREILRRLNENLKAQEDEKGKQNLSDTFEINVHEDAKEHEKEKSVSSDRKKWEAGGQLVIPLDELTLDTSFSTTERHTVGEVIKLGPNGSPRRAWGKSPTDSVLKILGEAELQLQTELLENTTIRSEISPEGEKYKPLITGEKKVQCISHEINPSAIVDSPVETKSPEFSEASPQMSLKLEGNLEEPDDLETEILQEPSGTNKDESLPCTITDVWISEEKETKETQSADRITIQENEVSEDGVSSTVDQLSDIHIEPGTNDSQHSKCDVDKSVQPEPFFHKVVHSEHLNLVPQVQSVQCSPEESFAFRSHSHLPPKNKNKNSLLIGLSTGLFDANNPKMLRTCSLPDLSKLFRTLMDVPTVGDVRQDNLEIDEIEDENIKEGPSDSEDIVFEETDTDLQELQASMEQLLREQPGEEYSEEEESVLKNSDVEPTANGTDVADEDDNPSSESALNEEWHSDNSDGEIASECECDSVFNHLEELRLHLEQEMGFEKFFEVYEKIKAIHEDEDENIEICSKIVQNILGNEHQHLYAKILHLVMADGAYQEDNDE

As usually defined, the inhibition is how much of the control response was suppressed. A lower inhibition goes with a response near the control. With `CN(C(=O)CN1CCOCC1)c1ccc2sc3c(-c4cccc5c(=O)cc(N6CC7CCC(C6)O7)oc45)cccc3c2c1` [NU5455], the inhibition at 1 µM was determined as 12.9%.
